Test results: patent US7303765B2, “Ultrafine-L-carnitine, methods of preparing the same, compositions containing the same, and methods of using the same” (Sigma-Tau HealthScience S.p.A., priority 1999, dated 2007)

How the values were obtained:
[1] = Oral toxicity (LD50) in rats; settings: rat, in vivo
Solubility in water = format: physicochemical
Excerpt: Ultra-fine L-carnitine fumarate so prepared has the following analytical properties: […]

[2] = Bioavailability / human plasma levels after dosing; settings: in vivo
Excerpt: Transformers may therefore accomplish the target dosage using a reduced active bolus, an efficiency which translates to cost savings. In principle, consumers purchase nutritionals on a pure weight volume (W/V) basis.

C[N+](C)(C)C[C@H](O)CC(=O)[O-].O=C(O)/C=C/C(=O)O [Ultra-fine L-carnitine fumarate, L-carnitine fumarate]
LD50 [1]: > 8000 mg/kg
Solubility (Solubility in water): 5 g/100 ml in water
bioavailability through the mitochondrial pathway ([2]; human): increased bioavailability
human plasma levels [2]: equal those of conventionally sized L-carnitine tartrate
